Data published in ChEMBL document CHEMBL3352784, “Investigation of Cardiovascular Effects of Tetrahydro-β-carboline sstr3 antagonists” (ACS Med Chem Lett, 2014).

Legend:
[1] = target: Somatostatin receptor type 3 (Mus musculus) (UniProt P30935); test: Antagonist activity at mouse SSTR3 expressed in CHO cells assessed as cAMP level by fluorescence analysis relative to control; assay type: functional, cell-based; parameters: concentration or dose not given beside the values; details: concentration not given here
[2] = target: T1, Somatostatin receptor type 3 (Mus musculus, UniProt P30935); test: Antagonist activity at mouse SSTR3 expressed in CHO cells assessed as cAMP level by fluorescence analysis; assay type: functional, cell-based
[3] = target: T2, Somatostatin receptor type 3 (Homo sapiens, UniProt P32745)
Description: Antagonist activity at human SSTR3 expressed in CHO cells assessed as cAMP level by fluorescence analysis

[4] = target: T2, Somatostatin receptor type 3; test: biochemical
Description: Displacement of [125I]SS-14 from human SSTR3 expressed in CHO cells by TopCount analyzer

[5] = target: T1, Somatostatin receptor type 3; assay type: cell-based, CHO
[6] = target: Voltage-gated inwardly rectifying potassium channel KCNH2 (Homo sapiens, UniProt Q12809)
Description: Inhibition of human ERG by MK-499 displacement binding analysis

Canis familiaris = test: Toxicity in anesthetized vagus-intact cardiovascular dog model assessed as QTc interval prolongation at 909 uM plasma concentration; assay type: organism-based, Canis lupus familiaris
[7] = Clearance in mouse; assay type: ADME, organism-based; details: in vivo
[8] = Half life in mouse; assay type: ADME, organism-based; details: in vivo
[9] = Oral bioavailability in mouse; assay type: ADME, organism-based; details: in vivo
[10] = target: Somatostatin receptor type 1 (Homo sapiens, UniProt P30872); assay type: cell-based, CHO
[11] = target: Somatostatin receptor type 2 (Homo sapiens, UniProt P30874); assay type: cell-based, CHO
[12] = target: Somatostatin receptor type 4 (Homo sapiens, UniProt P31391); assay type: cell-based, CHO
[13] = target: Somatostatin receptor type 5 (Homo sapiens, UniProt P35346); assay type: cell-based, CHO
Mus musculus [14] = test: Antidiabetic activity in C57BL/6 mouse assessed as reduction in glucose excursion at 3 mg/kg, po by oGTT assay relative to MK-4256; assay type: functional
Mus musculus [15] = test: Antidiabetic activity in C57BL/6 mouse assessed as reduction in glucose excursion at 10 mg/kg, po by oGTT assay relative to MK-4256; assay type: functional
Mus musculus [16] = test: Antidiabetic activity in C57BL/6 mouse assessed as reduction in glucose excursion at 3 mg/kg, po by oGTT assay relative to control; assay type: functional; details: C57BL/6, read-out: INH
[17] = Plasma concentration in C57BL/6 mouse at 3 mg/kg, po after 2.5 hrs; assay type: ADME, organism-based; parameters: dose 3 mg/kg, route oral
[18] = Plasma concentration in C57BL/6 mouse at 10 mg/kg, po after 2.5 hrs; assay type: ADME, organism-based; parameters: dose 10 mg/kg, route oral
Mus musculus [19] = test: Antidiabetic activity in C57BL/6 mouse assessed as reduction in glucose excursion at 1 mg/kg, ip by oGTT assay relative to MK-4256; assay type: functional; details: C57BL/6, ip, route intraperitoneal
[20] = Plasma concentration in C57BL/6 mouse at 1 mg/kg, ip after 2.5 hrs; assay type: ADME, organism-based; parameters: dose 1 mg/kg, route intraperitoneal
in vivo [21] = details: dog, iv, 10 mg/kg
in vivo [22] = details: dog, iv, 20 mg/kg
in vivo [23] = details: dog, iv, 50 mg/kg

T2 sequence (P32745 whole entry): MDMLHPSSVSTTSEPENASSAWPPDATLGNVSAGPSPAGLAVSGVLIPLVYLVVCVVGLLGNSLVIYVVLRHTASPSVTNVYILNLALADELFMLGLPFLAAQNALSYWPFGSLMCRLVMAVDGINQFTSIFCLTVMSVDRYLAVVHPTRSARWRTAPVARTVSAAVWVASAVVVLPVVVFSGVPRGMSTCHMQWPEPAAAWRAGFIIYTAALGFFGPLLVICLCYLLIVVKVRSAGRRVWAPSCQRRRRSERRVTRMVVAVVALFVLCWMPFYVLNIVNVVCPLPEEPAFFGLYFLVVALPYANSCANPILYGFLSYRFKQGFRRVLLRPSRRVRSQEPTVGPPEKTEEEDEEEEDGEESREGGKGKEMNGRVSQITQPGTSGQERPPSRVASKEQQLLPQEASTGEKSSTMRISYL
Chain of Somatostatin receptor type 3 (Mus musculus) (P30935 whole entry): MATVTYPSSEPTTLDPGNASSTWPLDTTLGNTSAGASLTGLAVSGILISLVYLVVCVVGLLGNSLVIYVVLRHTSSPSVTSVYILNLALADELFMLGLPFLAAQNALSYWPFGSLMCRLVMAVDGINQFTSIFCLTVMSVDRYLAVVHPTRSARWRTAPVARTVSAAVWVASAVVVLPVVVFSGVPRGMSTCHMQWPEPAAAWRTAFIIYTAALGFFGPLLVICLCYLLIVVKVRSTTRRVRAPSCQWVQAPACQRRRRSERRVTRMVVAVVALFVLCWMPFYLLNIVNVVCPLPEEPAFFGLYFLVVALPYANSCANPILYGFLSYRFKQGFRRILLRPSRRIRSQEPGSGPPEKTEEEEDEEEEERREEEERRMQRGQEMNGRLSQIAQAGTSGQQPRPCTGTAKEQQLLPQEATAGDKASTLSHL
T1 sequence (P30935 whole entry): as above
Chain of Voltage-gated inwardly rectifying potassium channel KCNH2 (Q12809 whole entry): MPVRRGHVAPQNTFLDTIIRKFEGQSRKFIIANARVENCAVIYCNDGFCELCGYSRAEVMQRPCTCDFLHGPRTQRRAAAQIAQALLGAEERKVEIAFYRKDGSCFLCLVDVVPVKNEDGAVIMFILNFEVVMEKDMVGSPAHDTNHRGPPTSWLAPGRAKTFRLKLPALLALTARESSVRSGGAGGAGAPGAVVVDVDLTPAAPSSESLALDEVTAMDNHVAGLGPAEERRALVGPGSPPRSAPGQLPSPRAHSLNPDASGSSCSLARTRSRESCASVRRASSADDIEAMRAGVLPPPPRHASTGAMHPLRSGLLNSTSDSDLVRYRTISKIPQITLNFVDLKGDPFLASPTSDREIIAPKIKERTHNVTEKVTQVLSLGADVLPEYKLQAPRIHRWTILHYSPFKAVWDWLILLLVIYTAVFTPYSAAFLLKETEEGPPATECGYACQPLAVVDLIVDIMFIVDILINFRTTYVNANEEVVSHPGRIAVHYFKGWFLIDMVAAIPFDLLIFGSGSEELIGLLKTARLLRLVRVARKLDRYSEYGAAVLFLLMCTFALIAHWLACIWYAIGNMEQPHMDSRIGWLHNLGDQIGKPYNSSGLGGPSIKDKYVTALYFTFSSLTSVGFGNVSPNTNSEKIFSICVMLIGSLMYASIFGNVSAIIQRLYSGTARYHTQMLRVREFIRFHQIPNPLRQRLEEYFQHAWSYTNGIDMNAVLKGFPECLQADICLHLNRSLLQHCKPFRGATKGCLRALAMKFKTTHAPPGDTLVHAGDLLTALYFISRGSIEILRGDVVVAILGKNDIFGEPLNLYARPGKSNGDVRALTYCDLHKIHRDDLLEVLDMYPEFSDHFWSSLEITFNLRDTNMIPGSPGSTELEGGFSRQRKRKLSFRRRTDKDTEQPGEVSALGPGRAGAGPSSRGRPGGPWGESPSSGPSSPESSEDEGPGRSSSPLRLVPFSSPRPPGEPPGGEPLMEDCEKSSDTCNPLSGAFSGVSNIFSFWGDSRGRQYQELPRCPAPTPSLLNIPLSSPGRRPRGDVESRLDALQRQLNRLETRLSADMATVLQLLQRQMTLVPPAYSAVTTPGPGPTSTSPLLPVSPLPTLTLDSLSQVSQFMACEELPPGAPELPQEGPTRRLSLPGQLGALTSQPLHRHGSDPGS
Chain of Somatostatin receptor type 2 (P30874 whole entry): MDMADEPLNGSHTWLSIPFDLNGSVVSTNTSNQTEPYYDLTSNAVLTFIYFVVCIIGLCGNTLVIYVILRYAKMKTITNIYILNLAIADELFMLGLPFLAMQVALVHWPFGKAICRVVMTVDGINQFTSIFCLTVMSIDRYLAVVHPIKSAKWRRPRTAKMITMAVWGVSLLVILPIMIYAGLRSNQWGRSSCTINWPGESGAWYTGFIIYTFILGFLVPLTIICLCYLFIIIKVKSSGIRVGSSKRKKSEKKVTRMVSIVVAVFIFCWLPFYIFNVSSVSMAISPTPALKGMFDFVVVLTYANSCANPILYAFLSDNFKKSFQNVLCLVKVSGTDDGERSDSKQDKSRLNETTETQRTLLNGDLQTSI
Chain of Somatostatin receptor type 5 (P35346 whole entry): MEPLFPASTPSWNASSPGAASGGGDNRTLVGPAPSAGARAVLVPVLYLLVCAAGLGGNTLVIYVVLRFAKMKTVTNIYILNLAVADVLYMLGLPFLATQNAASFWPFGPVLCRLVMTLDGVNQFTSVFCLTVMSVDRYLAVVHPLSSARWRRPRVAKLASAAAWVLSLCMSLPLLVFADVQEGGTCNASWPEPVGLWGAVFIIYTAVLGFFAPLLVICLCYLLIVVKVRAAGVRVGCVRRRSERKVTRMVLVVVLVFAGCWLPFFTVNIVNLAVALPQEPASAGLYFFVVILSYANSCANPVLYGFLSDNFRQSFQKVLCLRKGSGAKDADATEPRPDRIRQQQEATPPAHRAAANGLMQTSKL
Chain of Somatostatin receptor type 4 (P31391 whole entry): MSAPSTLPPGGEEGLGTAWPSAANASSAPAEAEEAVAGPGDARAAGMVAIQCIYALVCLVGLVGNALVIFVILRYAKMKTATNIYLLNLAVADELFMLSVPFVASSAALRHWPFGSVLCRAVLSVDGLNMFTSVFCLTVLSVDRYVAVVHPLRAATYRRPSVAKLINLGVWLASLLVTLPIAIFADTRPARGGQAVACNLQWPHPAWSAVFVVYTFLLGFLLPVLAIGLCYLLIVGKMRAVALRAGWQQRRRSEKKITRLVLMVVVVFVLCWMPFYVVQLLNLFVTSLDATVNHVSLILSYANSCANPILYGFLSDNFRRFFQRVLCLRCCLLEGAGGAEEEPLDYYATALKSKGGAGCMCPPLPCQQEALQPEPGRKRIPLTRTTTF
Chain of Somatostatin receptor type 1 (P30872 whole entry): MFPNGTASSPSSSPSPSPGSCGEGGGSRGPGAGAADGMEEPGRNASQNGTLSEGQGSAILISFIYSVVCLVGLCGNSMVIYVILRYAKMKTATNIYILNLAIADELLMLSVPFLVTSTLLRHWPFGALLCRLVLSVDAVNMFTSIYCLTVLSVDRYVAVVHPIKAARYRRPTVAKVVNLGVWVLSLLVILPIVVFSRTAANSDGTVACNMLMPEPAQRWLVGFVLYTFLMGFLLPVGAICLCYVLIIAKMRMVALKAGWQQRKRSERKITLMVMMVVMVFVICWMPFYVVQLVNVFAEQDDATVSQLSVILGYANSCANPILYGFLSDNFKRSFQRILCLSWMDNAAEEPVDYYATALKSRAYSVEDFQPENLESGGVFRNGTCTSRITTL

## CCOC(=O)c1ccc(C2(c3cnn(C)c3)N[C@@H](c3nc(-c4ccc(F)cc4)c[nH]3)Cc3c2[nH]c2ccccc32)nc1 (single isomer, unassigned; 9B) [listing 1 of 2 here]
[1]
  inhibition: 66%

## Cn1cc(C2(c3cccc(C(=O)O)n3)N[C@@H](c3nc(-c4ccc(F)cc4)c[nH]3)Cc3c2[nH]c2ccccc32)cn1 (single isomer, unassigned; 2B) [listing 1 of 2 here]
[2]
  IC50: 111 nM
[3]
  IC50: 105 nM
[4]
  IC50: 74.7 nM

## CCOC(=O)c1cccc(C2(c3cnn(C)c3)N[C@@H](c3nc(-c4ccc(F)cc4)c[nH]3)Cc3c2[nH]c2ccccc32)n1 (single isomer, unassigned; 6B) [listing 1 of 2 here]
[5]
  IC50: 0.7 nM
[2]
  IC50: 3.48 nM
[3]
  IC50: 5.36 nM
[4]
  IC50: 1.52 nM

## Cn1cc(C2(c3ccc(C(=O)O)cn3)N[C@@H](c3nc(-c4ccc(F)cc4)c[nH]3)Cc3c2[nH]c2ccccc32)cn1 (single isomer, unassigned; 5B) [listing 1 of 2 here]
[2]
  IC50: 1860 nM

## CCOC(=O)c1cncc([C@]2(c3cnn(C)c3)N[C@@H](c3nc(-c4ccc(F)cc4)c[nH]3)Cc3c2[nH]c2ccccc32)c1
[2]
  IC50: 0.35 nM
[1]
  inhibition: 99%
[6]
  IC50: 2260 nM
[3]
  IC50: 0.15 nM
[4]
  IC50: 0.78 nM

## CCOC(=O)c1ccc(C2(c3cnn(C)c3)N[C@@H](c3nc(-c4ccc(F)cc4)c[nH]3)Cc3c2[nH]c2ccccc32)nc1 (single isomer, unassigned; 9B) [listing 2 of 2 here]
[2]
  IC50: 14.2 nM
[3]
  IC50: 31.6 nM
[4]
  IC50: 2.91 nM

## Cn1cc(C2(c3cc(C(=O)O)ccn3)N[C@@H](c3nc(-c4ccc(F)cc4)c[nH]3)Cc3c2[nH]c2ccccc32)cn1 (single isomer, unassigned; 3B) [listing 1 of 2 here]
[1]
  inhibition: 70%

## CCOC(=O)c1cccc(C2(c3cnn(C)c3)N[C@@H](c3nc(-c4ccc(F)cc4)c[nH]3)Cc3c2[nH]c2ccccc32)n1 (single isomer, unassigned; 6A) [listing 1 of 2 here]
[5]
  IC50: 0.41 nM
[2]
  IC50: 0.58 nM
[3]
  IC50: 1.97 nM
[4]
  IC50: 0.83 nM

## CCOC(=O)c1cccc(C2(c3cnn(C)c3)N[C@@H](c3nc(-c4ccc(F)cc4)c[nH]3)Cc3c2[nH]c2ccccc32)n1 (single isomer, unassigned; 6A) [listing 2 of 2 here]
[1]
  inhibition: 80%

## Cn1cc(C2(c3cccc(C(=O)O)n3)N[C@@H](c3nc(-c4ccc(F)cc4)c[nH]3)Cc3c2[nH]c2ccccc32)cn1 (single isomer, unassigned; 2A) [listing 1 of 2 here]
[1]
  inhibition: 101%

## Cn1cc([C@@]2(c3cncc(C(=O)O)c3)N[C@@H](c3nc(-c4ccc(F)cc4)c[nH]3)Cc3c2[nH]c2ccccc32)cn1
[2]
  IC50: 0.16 nM
[1]
  inhibition: 67%
[3]
  IC50: 0.52 nM
[4]
  IC50: 1.22 nM

## Cn1cc(C2(c3cccc(C(=O)O)n3)N[C@@H](c3nc(-c4ccc(F)cc4)c[nH]3)Cc3c2[nH]c2ccccc32)cn1 (single isomer, unassigned; 2B) [listing 2 of 2 here]
[1]
  inhibition: 69%

## CCOC(=O)c1ccnc(C2(c3cnn(C)c3)N[C@@H](c3nc(-c4ccc(F)cc4)c[nH]3)Cc3c2[nH]c2ccccc32)c1 (single isomer, unassigned)
[5]
  IC50: 0.41 nM
[2]
  IC50: 0.36 nM
[1]
  inhibition: 91%
[3]
  IC50: 0.78 nM
[4]
  IC50: 0.64 nM

## CCOC(=O)c1ccnc([C@@]2(c3cnn(C)c3)N[C@@H](c3nc(-c4ccc(F)cc4)c[nH]3)Cc3c2[nH]c2ccccc32)c1
[2]
  IC50: 14.7 nM
[1]
  inhibition: 85%
[3]
  IC50: 47.1 nM
[4]
  IC50: 4.87 nM

## Cn1cc(C2(c3cccc(C(=O)O)n3)N[C@@H](c3nc(-c4ccc(F)cc4)c[nH]3)Cc3c2[nH]c2ccccc32)cn1 (single isomer, unassigned; 2A) [listing 2 of 2 here]
[5]
  IC50: 3.93 nM
[2]
  IC50: 34 nM
[3]
  IC50: 67 nM
[4]
  IC50: 4.41 nM

## Cn1cc(C2(c3cc(C(=O)O)ccn3)N[C@@H](c3nc(-c4ccc(F)cc4)c[nH]3)Cc3c2[nH]c2ccccc32)cn1 (single isomer, unassigned; 3A) [listing 1 of 2 here]
Canis familiaris
  Activity: Non-toxic
[5]
  IC50: 1.72 nM
[2]
  IC50: 0.73 nM
[7]
  clearance: 15.6 mL/min/kg
[8]
  half-life: 2.62 h
[9]
  bioavailability: 1.5%
[10]
  IC50: > 10000 nM
[11]
  IC50: > 10000 nM
[12]
  IC50: > 10000 nM
[13]
  IC50: > 10000 nM
Mus musculus [14]
  inhibition in vivo at 3 mg/kg: 24%
Mus musculus [15]
  inhibition in vivo at 10 mg/kg: 35%
Mus musculus [16]
  inhibition in vivo at 3 mg/kg: 24%
[17]
  concentration at 2.5 h: 0.002 µM
[18]
  concentration at 2.5 h: 0.003 µM
Mus musculus [19]
  inhibition in vivo at 1 mg/kg: 64%
[20]
  concentration at 2.5 h: 0.074 µM
[3]
  IC50: 1.71 nM
In vivo [21]
  Cmax at 0.5 h: 38 µM
In vivo [22]
  Cmax at 0.5 h: 199 µM
In vivo [23]
  Cmax at 0.5 h: 909 µM
[4]
  IC50: 2.13 nM

## Cn1cc(C2(c3ccc(C(=O)O)cn3)N[C@@H](c3nc(-c4ccc(F)cc4)c[nH]3)Cc3c2[nH]c2ccccc32)cn1 (single isomer, unassigned; 5A) [listing 1 of 2 here]
[2]
  IC50: 57.1 nM

## Cn1cc(C2(c3cc(C(=O)O)ccn3)N[C@@H](c3nc(-c4ccc(F)cc4)c[nH]3)Cc3c2[nH]c2ccccc32)cn1 (single isomer, unassigned; 3B) [listing 2 of 2 here]
[2]
  IC50: 17.1 nM
[3]
  IC50: 52.3 nM
[4]
  IC50: 72.7 nM

## CCOC(=O)c1ccc(C2(c3cnn(C)c3)N[C@@H](c3nc(-c4ccc(F)cc4)c[nH]3)Cc3c2[nH]c2ccccc32)nc1 (single isomer, unassigned; 9A) [listing 1 of 2 here]
[1]
  inhibition: 96%

## CCOC(=O)c1cccc(C2(c3cnn(C)c3)N[C@@H](c3nc(-c4ccc(F)cc4)c[nH]3)Cc3c2[nH]c2ccccc32)n1 (single isomer, unassigned; 6B) [listing 2 of 2 here]
[1]
  inhibition: 87%

## Cn1cc([C@]2(c3cncc(C(=O)O)c3)N[C@@H](c3nc(-c4ccc(F)cc4)c[nH]3)Cc3c2[nH]c2ccccc32)cn1
[2]
  IC50: 2.9 nM
[1]
  inhibition: 80%
[3]
  IC50: 6.12 nM
[4]
  IC50: 10.8 nM

## Cn1cc(C2(c3ccc(C(=O)O)cn3)N[C@@H](c3nc(-c4ccc(F)cc4)c[nH]3)Cc3c2[nH]c2ccccc32)cn1 (single isomer, unassigned; 5B) [listing 2 of 2 here]
[1]
  inhibition: 51%

## Cn1cc(C2(c3ccc(C(=O)O)cn3)N[C@@H](c3nc(-c4ccc(F)cc4)c[nH]3)Cc3c2[nH]c2ccccc32)cn1 (single isomer, unassigned; 5A) [listing 2 of 2 here]
[1]
  inhibition: 87%

## Cn1cc(C2(c3cc(C(=O)O)ccn3)N[C@@H](c3nc(-c4ccc(F)cc4)c[nH]3)Cc3c2[nH]c2ccccc32)cn1 (single isomer, unassigned; 3A) [listing 2 of 2 here]
[1]
  inhibition: 81%

## CCOC(=O)c1cncc([C@@]2(c3cnn(C)c3)N[C@@H](c3nc(-c4ccc(F)cc4)c[nH]3)Cc3c2[nH]c2ccccc32)c1
[2]
  IC50: 8.37 nM
[1]
  inhibition: 107%
[6]
  IC50: 2520 nM
[3]
  IC50: 24 nM
[4]
  IC50: 3.36 nM

## CCOC(=O)c1ccc(C2(c3cnn(C)c3)N[C@@H](c3nc(-c4ccc(F)cc4)c[nH]3)Cc3c2[nH]c2ccccc32)nc1 (single isomer, unassigned; 9A) [listing 2 of 2 here]
[2]
  IC50: 1.53 nM
[3]
  IC50: 5.25 nM
[4]
  IC50: 1.72 nM
